These results are taken from the Deep4Chem optical property database.

Molecules are shown by their SMILES. Where “and” joins values, the source holds several entries; their conditions need not be identical. Equal entries are not always repeated.

The data set is described as follows: solvent given as SMILES.

The compound `Cc1ccc(S(=O)(=O)Nc2c(/C=C/c3ccccc3)sc(-c3ccc(N(C)C)s3)c2-c2cccnc2)cc1` showed an emission maximum (in CC#N) of 610 nm.

For `CNc1ccc(/C=C/C(=O)OC)cc1`, the emission maximum (in O) came out at 470 nm.

As to `O=P(c1ccccc1)(c1ccccc1)c1cccc(-n2c(-c3ccccc3P(=O)(c3ccccc3)c3ccccc3)nc3ccccc32)c1`, under “in ClCCl”, the emission maximum worked out at 384 nm.

In the case of `OCC1O[C@@H](Cc2cc(O)cc(/C=C/c3ccc(O)c(O)c3)c2)[C@H](O)[C@@H](O)[C@@H]1O` (stereo partly specified), the emission maximum runs as follows: (in C1CCOC1) 375 nm; (in C1COCCO1) 370 nm; (in CC#N) 387 nm; (in CC(C)=O) 376 nm; (in CCCCO) 385 nm; (in CCCO) 386 nm. Moreover, the emission maximum by setting is: (in CCO) 390 nm; (in CCOC(C)=O) 372 nm; (in CCOCC) 372 nm; (in CN(C)C=O) 378 nm; (in CO) 394 nm; (in CS(C)=O) 381 nm. Further, the emission maximum (in Cc1ccccc1) is listed as 371 nm, the emission maximum (in ClC(Cl)Cl) is reported as 373 nm and the emission maximum (in O) turned out to be 403 nm.

Turning to `COC(=O)c1cc(=O)n(C)c2cc(-c3ccc4c(c3)OCO4)sc12`, the emission maximum is given as 482 nm (in CC#N) and 474 nm (in ClCCl).

In the case of `CCCN1C(=O)C(=CC=CC=C2Oc3ccccc3N2CCCS(=O)(=O)[O-])C(=O)N(CCC)C1=S`, the emission maximum reads like this: (in C1COCCO1) 584 nm; (in CC(C)=O) 580 nm; (in CCCCO) 583 nm; (in CCCO) 581 nm; (in CCO) 579 nm; (in CO) 577 nm. The emission maximum was 589 nm (in ClC(Cl)Cl) and 573 nm (in O).

As for `CCCC1(CCC)c2cc(C=C(C#Cc3ccccc3)C#Cc3ccccc3)ccc2-c2ccc(C=C(C#Cc3ccccc3)C#Cc3ccccc3)cc21`, the emission maximum (in ClC(Cl)Cl) came to 473 nm.

For `CSc1ccc2c(c1)N(CCCN(C)C)c1ccccc1S2`, the emission maximum was 460 nm (in CC#N), 455 nm (in CO) and 475 nm (in O).

As for `N#Cc1cc2sccc2c2c1ccc1ccccc12`, the emission maximum (in ClC(Cl)Cl) worked out at 382 nm.

Regarding `COc1ccc(-n2cccc2)cc1`, the emission maximum runs as follows: (in CC#N) 327 nm; (in CCCCCC) 324 nm.

For the compound `CC(C)[Si](C#Cc1c2ccccc2c(C#C[Si](C(C)C)(C(C)C)C(C)C)c2nc3c(ccc4ccccc43)nc12)(C(C)C)C(C)C`, for the setting “in CCCCCC”, the emission maximum is reported as 553 nm.

For the compound `CCCCCCCCOc1ccc2c3cccc4c(OCCCCCCCC)ccc(c5cccc1c52)c43`, the emission maximum by setting is: (in C1CCOC1) 468.03 nm; (in Cc1ccccc1) 467.99 nm; (in ClC(Cl)(Cl)Cl) 471.01 nm; (in ClC(Cl)Cl) 471.01 nm; (in ClCCl) 469.99 nm; (in c1ccncc1) 474.01 nm.

Regarding `CN(C)c1ccc(C(=O)Nc2ccc([N+](=O)[O-])cc2)cc1`, the emission maximum reads like this: (in C1CCCCC1) 360 nm; (in C1CCOC1) 400 nm; (in CC#N) 430 nm; (in CCOCC) 536 nm.

With `CCCCCCCCCCCCOc1ccc(C#CC(C#Cc2ccc(OCCCCCCCCCCCC)cc2)=Cc2cc(C=C(C#Cc3ccc(OCCCCCCCCCCCC)cc3)C#Cc3ccc(OCCCCCCCCCCCC)cc3)cc(C=C(C#Cc3ccc(OCCCCCCCCCCCC)cc3)C#Cc3ccc(OCCCCCCCCCCCC)cc3)c2)cc1`, for the setting “in CCOC(C)=O”, the emission maximum was determined as 428 nm.

On to `CC(C)(C)c1ccc2oc3nc4oc5ccc(-n6c7ccc(C(C)(C)C)cc7c7cc(C(C)(C)C)ccc76)cc5c4cc3c2c1`, for which, for the setting “in ClC(Cl)Cl”, the emission maximum worked out at 444 nm.

As for `COc1cccc(C2=C3C=C(/C=C/C(=O)OC(C)(C)C)C=[N+]3[B-](F)(F)n3cccc32)c1`, the emission maximum (in ClCCl) stood at 581 nm.

Take `O=S(=O)(c1cccc(N2c3ccccc3Oc3ccccc32)c1)c1cccc(N2c3ccccc3Oc3ccccc32)c1`: the emission maximum worked out at 596 nm (in C1CCOC1); 542.52 nm (in CCCCC(CC)n1c2ccc(-n3c4ccccc4c4ccccc43)cc2c2cc(-n3c4ccccc4c4ccccc43)ccc21); 547 nm (in Cc1ccccc1); 572 nm (in ClC(Cl)Cl); 546.26 nm (in c1cc(-n2c3ccccc3c3ccccc32)cc(-n2c3ccccc3c3ccccc32)c1).

`COc1ccc(/C=C/C2=CC(/C=C/c3ccc(OC)cc3)=[N+]3C2=C(c2ccc(-c4ccc5ccccc5n4)s2)c2c(/C=C/c4ccc(OC)cc4)cc(/C=C/c4ccc(OC)cc4)n2[B-]3(F)F)cc1`: the emission maximum (in C1COCCO1) turned out to be 732 nm.

Under “in ClC(Cl)Cl”, `CCCCCCCCN1C(=O)c2ccc3c4c(-c5ccc6c(c5)c5ccccc5n6-c5ccccc5)cc5c6c(ccc(c7c(-c8ccc9c(c8)c8ccccc8n9-c8ccccc8)cc(c2c37)C1=O)c64)C(=O)N(CCCCCCCC)C5=O` showed an emission maximum of 689 nm.

In the case of `CN(C)c1ccc2nc(-c3ccc(/C=N/c4ccccc4)cc3)sc2c1`, the emission maximum runs as follows: (in C1CCCCC1) 445 nm; (in CC#N) 610 nm; (in CO) 639 nm; (in ClC(Cl)Cl) 534 nm.

Take `O=c1[nH]nc(-c2ccc(/C=C/c3ccc(-c4n[nH]c(=O)o4)cc3)cc2)o1`: the emission maximum (in CN(C)C=O) came to 408 nm.

`C(=C\c1cc(/C=C/c2ccc(N(c3ccccc3)c3ccccc3)cc2)ncn1)/c1ccc(N(c2ccccc2)c2ccccc2)cc1`: under “in ClCCl”, the emission maximum is given as 540 nm.

In the case of `COc1cccc(-n2c(-c3ccccc3)nc(C)c2C)c1`, the emission maximum worked out at 366 nm (in C1COCCO1); 373 nm (in CC#N); 365 nm (in CCCCCC); 370 nm (in CCCCO); 369 nm (in CCO); 370 nm (in CCOC(C)=O). Moreover, the emission maximum was 368 nm (in CO), 366 nm (in ClC(Cl)Cl), 364 nm (in ClCCl) and 372 nm (in c1ccccc1).

Turning to `O=c1oc2ccccc2c2c1c(=O)oc1cc(O)c3ccccc3c12`, the emission maximum (in ClCCl) was 529 nm.

For the compound `CCCCCCOc1ccc2oc3c(c2c1)=CC1=C(c2ccccc2C)c2cc4c5cc(OCCCCCC)ccc5oc4n2[B-](F)(F)[N+]=31`, the emission maximum reads like this: (in C1CCCCC1) 603 nm; (in CCOC(C)=O) 602.5 nm; (in CO) 603 nm.

Turning to `O=P1(c2ccccc2)C2=C(c3ccccc31)S(=O)(=O)c1ccccc12` (stereo unspecified), the emission maximum runs as follows: (in C1CCCCC1) 453 nm; (in CC#N) 465 nm; (in CCO) 471 nm; (in ClCCl) 466 nm.

With `CN(C)c1ccc(-c2cc(=O)c3ccccc3o2)cc1`, the emission maximum by setting is: (in C1CCCCC1) 382.35 nm; (in CC#N) 474 nm and 462.75 nm; (in CCOC(C)=O) 442 nm and 433.73 nm; (in Cc1ccccc1) 417 nm.

`CCOC(=O)c1ccc(C2CC(c3cccc4ccccc34)=NN2c2ccc(C#N)cc2)cc1` (stereo unspecified) displayed an emission maximum (in ClCCl) of 430 nm.

Turning to `COc1ccc2c(c1)c1c(OC)c3ccccc3c(OC)c1n2C`, the emission maximum is 431 nm (in C1CCCCC1), 445 nm (in CC#N), 441 nm (in CO) and 443 nm (in ClCCl).

For the compound `c1ccc2c(-c3ccc(-c4nnc(-c5ccc(-c6nnc(-c7ccc(-c8cccc9ccccc89)s7)o6)cc5)o4)s3)cccc2c1`, the emission maximum (in C1COCCO1) was 434 nm; the emission maximum (in CC#N) is on record as 458 nm; the emission maximum (in CC(=O)N(C)C) was 462 nm; the emission maximum (in CCCCCCCCCCO) is recorded as 440 nm; the emission maximum (in CCCCCCCCO) is reported as 442 nm; the emission maximum (in CCCCCCO) came out at 445 nm. The emission maximum (in CCCCO) was determined as 451 nm; the emission maximum (in CCO) was found to be 459 nm; the emission maximum (in CS(C)=O) is given as 468 nm; the emission maximum (in Cc1ccccc1) came out at 434 nm; the emission maximum (in ClC(Cl)Cl) was determined as 410 nm.

As for `C(=C\c1ccc(-c2nnc(-c3ccc(/C=C/c4ccc(-c5nc(-c6ccccc6)c(-c6ccccc6)[nH]5)cc4)cc3)o2)cc1)/c1ccc(-c2nc(-c3ccccc3)c(-c3ccccc3)[nH]2)cc1`, the emission maximum is, setting by setting: (in C1CCOC1) 492 nm; (in CC#N) 525 nm; (in CN(C)C=O) 524 nm; (in Cc1ccccc1) 445 nm.

For `CCCCC(CC)COc1cc(OCC(CC)CCCC)c2c#cc3ccc4c(c3)c3cc(c#cc5cc(c#cc6ccc7c(c6)c6cc(c#cc1c2)ccc6n7CC(CC)CCCC)c(C(CCCC)OCCC)cc5C(CCCC)OCCC)ccc3n4CC(CC)CCCC` (stereo unspecified), where the note is “in ClCCl”, the emission maximum is 388 nm.

Consider `N#Cc1cccc2cc[nH]c12`, for which the emission maximum stood at 368 nm (in C1CCOC1); 367 nm (in C1COCCO1); 378 nm (in CC#N); 380 nm (in CC(C)O); 382 nm (in CCO); 387 nm (in CO). In addition, the emission maximum reads like this: (in CS(C)=O) 391 nm; (in O) 400 nm; (in OCC(F)(F)F) 391 nm.

For the compound `COc1ccc(C2=C(c3ccc(OC)cc3)c3cccc4c5c(cc(c34)O2)=NC(C#N)C(C#N)N=5)cc1` (stereo unspecified), the emission maximum (in ClCCl) is reported as 632 nm.

As to `CCOC(=O)c1c(-c2c(Cl)c3cc(C)ccc3oc2=O)nn(-c2ccccc2)c1C(=O)OCC`, the emission maximum (in ClCCl) was 417 nm.
